Assay results published in ChEMBL document CHEMBL1144584, “Identification of novel short chain 4-substituted indoles as potent alphavbeta3 antagonist using structure-based drug design” (Eur J Med Chem, 2007).

Key:
Integrin alpha-V/beta-5 = Integrin alpha-V/beta-5 (Homo sapiens, UniProt P06756+P18084); assay: Binding affinity to Integrin alpha-v-beta-5 receptor by ELISA assay; format: protein-complex assay
[1] = Binding affinity to Integrin […] receptor by ELISA assay; set-up: species or system Homo sapiens
[2] = Binding affinity to Integrin alpha-2b-beta-3a receptor by ELISA assay; set-up: species or system Homo sapiens
Integrin alpha-V/beta-3 = Integrin alpha-V/beta-3 (Homo sapiens, UniProt P05106+P06756); assay: Binding affinity to Integrin alpha-v-beta-3 receptor by ELISA assay; format: protein-complex assay
Chain of Integrin alpha-V/beta-3 (P05106 27-788 limits assumed): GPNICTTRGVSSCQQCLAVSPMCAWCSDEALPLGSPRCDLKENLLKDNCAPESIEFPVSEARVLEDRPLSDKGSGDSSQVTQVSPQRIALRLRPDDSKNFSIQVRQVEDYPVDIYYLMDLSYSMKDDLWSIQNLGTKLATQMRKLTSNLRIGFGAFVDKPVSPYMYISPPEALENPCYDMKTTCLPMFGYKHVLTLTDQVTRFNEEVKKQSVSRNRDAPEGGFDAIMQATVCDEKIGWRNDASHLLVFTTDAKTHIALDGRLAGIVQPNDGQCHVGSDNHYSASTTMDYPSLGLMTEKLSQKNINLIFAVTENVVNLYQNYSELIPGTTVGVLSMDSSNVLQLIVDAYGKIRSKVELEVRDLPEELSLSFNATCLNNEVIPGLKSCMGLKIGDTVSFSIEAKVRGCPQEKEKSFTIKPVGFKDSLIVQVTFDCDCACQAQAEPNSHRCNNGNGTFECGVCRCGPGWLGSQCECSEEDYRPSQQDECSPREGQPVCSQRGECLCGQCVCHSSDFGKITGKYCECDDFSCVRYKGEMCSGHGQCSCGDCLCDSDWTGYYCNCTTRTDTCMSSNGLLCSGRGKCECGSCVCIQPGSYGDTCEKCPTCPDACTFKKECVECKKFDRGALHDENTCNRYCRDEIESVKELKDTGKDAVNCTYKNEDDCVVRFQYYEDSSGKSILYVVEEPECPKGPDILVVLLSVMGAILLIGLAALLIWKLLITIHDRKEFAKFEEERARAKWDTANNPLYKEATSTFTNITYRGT
Chain of Integrin alpha-V/beta-3 (P06756 31-889 limits assumed): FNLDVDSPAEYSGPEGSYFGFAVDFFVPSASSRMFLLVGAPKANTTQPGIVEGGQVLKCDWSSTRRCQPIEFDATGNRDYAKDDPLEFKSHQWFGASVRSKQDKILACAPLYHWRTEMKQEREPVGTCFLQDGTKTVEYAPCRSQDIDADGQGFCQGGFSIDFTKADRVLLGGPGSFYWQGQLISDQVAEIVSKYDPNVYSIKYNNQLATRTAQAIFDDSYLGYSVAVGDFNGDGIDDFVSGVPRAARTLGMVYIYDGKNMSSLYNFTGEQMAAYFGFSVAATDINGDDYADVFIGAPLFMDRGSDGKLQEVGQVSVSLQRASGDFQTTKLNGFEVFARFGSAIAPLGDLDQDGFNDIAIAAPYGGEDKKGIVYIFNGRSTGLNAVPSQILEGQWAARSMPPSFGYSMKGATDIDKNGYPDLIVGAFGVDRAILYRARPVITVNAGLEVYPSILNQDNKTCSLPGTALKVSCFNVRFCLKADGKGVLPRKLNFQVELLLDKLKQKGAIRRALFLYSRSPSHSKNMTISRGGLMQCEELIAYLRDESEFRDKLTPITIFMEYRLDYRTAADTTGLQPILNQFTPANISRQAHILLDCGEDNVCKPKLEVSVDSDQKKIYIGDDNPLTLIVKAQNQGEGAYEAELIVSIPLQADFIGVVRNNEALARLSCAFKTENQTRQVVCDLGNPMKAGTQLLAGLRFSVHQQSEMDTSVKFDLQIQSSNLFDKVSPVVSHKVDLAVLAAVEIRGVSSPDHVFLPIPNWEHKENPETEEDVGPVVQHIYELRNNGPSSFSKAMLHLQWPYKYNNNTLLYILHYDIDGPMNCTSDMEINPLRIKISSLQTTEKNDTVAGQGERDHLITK
Chain of Integrin alpha-V/beta-3 (P06756 891-1048 limits assumed): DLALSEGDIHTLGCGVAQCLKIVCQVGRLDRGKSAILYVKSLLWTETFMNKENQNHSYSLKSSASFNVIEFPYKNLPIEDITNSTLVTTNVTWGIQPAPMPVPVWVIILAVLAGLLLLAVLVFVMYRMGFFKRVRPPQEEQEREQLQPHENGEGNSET

[3] = Permeability from apical to basolateral side of human Caco-2 cell membrane; format: ADME, cell-based
[4] = Permeability from basolateral to apical side of human Caco-2 cell membrane; format: ADME, cell-based

Chain of Integrin alpha-V/beta-5 (P06756 31-889 limits assumed): as the sequence (P06756 31-889 limits assumed) above
Chain of Integrin alpha-V/beta-5 (P06756 891-1048 limits assumed): as the sequence (P06756 891-1048 limits assumed) above
Chain of Integrin alpha-V/beta-5 (P18084 24-799 limits assumed): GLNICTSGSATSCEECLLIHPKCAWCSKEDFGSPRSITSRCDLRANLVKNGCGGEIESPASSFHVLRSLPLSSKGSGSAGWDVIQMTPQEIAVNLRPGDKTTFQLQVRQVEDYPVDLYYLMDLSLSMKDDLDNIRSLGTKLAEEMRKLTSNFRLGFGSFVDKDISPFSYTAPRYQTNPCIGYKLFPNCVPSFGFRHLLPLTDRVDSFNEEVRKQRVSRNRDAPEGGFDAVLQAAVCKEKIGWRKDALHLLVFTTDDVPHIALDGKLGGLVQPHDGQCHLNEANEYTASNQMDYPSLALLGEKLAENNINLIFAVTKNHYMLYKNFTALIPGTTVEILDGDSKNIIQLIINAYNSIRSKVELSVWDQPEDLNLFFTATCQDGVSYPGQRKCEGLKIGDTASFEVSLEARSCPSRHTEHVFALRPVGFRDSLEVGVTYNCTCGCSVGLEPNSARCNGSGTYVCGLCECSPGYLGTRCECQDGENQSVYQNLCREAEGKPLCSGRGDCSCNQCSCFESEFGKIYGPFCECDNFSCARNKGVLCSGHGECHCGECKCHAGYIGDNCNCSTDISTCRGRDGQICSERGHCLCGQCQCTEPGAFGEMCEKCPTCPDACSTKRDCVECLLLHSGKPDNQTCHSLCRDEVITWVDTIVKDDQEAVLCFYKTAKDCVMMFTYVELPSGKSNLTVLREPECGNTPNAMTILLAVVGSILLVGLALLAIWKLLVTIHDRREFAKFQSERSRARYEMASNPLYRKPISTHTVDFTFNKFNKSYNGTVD

Row | Compound | IC50 (Integrin alpha-V/beta-5) | IC50 [1] | IC50 [2] | IC50 (Integrin alpha-V/beta-3) | Papp A→B [3] | Papp B→A [4]
1 | O=C(O)CC(c1ccc2c(c1)OCO2)n1ccc2cc(OCCc3ccc4c(n3)NCCC4)ccc21 (centres undefined) | 0.5 nM | 24 nM | > 1000 nM | – | – | –
2 | O=C(O)CC(c1cccnc1)n1ccc2c(CCc3ccc4c(n3)NCCC4)cccc21 (centres undefined) | 0.96 nM | 250 nM | > 1000 nM | 0.5 nM | 2.2 ×10⁻⁶ cm/s | 2.5 ×10⁻⁶ cm/s
3 | O=C(O)CC(c1cccnc1)n1ccc2c(NCc3ccc4c(n3)NCCC4)cccc21 (centres undefined) | 11 nM | 9400 nM | > 1000 nM | 4.4 nM | – | –
4 | CC(C)[C@H]1C(=O)N[C@@H](CCCNC(=N)N)C(=O)NCC(=O)N[C@@H](CC(=O)O)C(=O)N[C@H](Cc2ccccc2)C(=O)N1C [CILENGITIDE] | – | 14 nM | > 1000 nM | – | – | –

Next, values leading:

Row | IC50 (Integrin alpha-V/beta-5) | IC50 [1] | IC50 [2] | IC50 (Integrin alpha-V/beta-3) | Papp A→B [3] | Papp B→A [4] | Compound
5 | 0.21 nM | 15 nM | > 1000 nM | – | – | – | O=C(O)CC(c1cccnc1)n1ccc2cc(OCCc3ccc4c(n3)NCCC4)ccc21 (centres undefined)
6 | 1.1 nM | 107 nM | > 1000 nM | 0.96 nM | – | – | O=C(O)CC(c1ccccc1)n1ccc2c(CCc3ccc4c(n3)NCCC4)cccc21 (centres undefined)
7 | 0.68 nM | 41 nM | > 1000 nM | – | – | – | O=C(O)CC(c1ccccc1)n1ccc2cc(OCCc3ccc4c(n3)NCCC4)ccc21 (centres undefined)
8 | 15 nM | 1100 nM | > 1000 nM | 14 nM | – | – | O=C(O)CC(c1ccccc1)n1ccc2cc(CCCc3ccc4c(n3)NCCC4)ccc21 (centres undefined)
